According to ChEMBL document CHEMBL6177964 (Eur J Med Chem, 2025):
The source made the active and inactive calls. The rule behind the calls is not given here. Residues, ends and D or L forms follow the SMILES beside them.

Tests used:
[1] = target: T1, Angiotensin-converting enzyme (Homo sapiens, UniProt P12821); assay: Binding affinity to ACE (unknown origin) assessed as change in entropy (-TdeltaS) at 800 to 1400 nM by isothermal titration calorimetric analysis; conditions: dose 800-1400 nM
[2] = target: T1, Angiotensin-converting enzyme; assay: Binding affinity to ACE (unknown origin) assessed as change in enthalpy at 800 to 1400 nM by isothermal titration calorimetric analysis; conditions: dose 800-1400 nM
[3] = target: T1, Angiotensin-converting enzyme; assay: Inhibition of ACE (unknown origin) preincubated with compound for 5 mins and measured after 60 mins
[4] = target: T1, Angiotensin-converting enzyme; assay: Binding affinity to ACE (unknown origin) assessed as change in entropy (deltaS) at 800 to 1400 nM by isothermal titration calorimetric analysis; conditions: dose 800-1400 nM
[5] = target: T1, Angiotensin-converting enzyme; assay: Binding affinity to ACE (unknown origin) assessed as change in Gibbs free energy at 800 to 1400 nM by isothermal titration calorimetric analysis; conditions: dose 800-1400 nM
[6] = target: T1, Angiotensin-converting enzyme; assay: Binding affinity to ACE (unknown origin) assessed as dissociation constant by isothermal titration calorimetric analysis
[7] = target: T1, Angiotensin-converting enzyme; assay: Binding affinity to ACE (unknown origin) measured at 20 mins
[8] = target: T1, Angiotensin-converting enzyme; assay: Binding affinity to ACE (unknown origin) measured within 14 mins
[9] = system: Rattus norvegicus; assay: Acute antihypertensive activity in spontaneously hypertensive male Wistar Kyoto rat assessed as reduction in systolic blood pressure at 5 mg/kg administered via gavage measured after 2 hrs by tail-artery manometry; type: functional
[10] = system: Rattus norvegicus; assay: Acute antihypertensive activity in spontaneously hypertensive male Wistar Kyoto rat assessed as reduction in diastolic blood pressure at 5 mg/kg administered via gavage measured after 2 hrs by tail-artery manometry; type: functional
[11] = system: Rattus norvegicus; assay: Subacute antihypertensive activity in spontaneously hypertensive male Wistar Kyoto rat assessed as reduction in systolic blood pressure at 2.5 mg/kg administered via gavage for 4 weeks and measured at 22 hrs post dose by tail-artery manometry; type: functional
[12] = system: Rattus norvegicus; assay: Subacute antihypertensive activity in spontaneously hypertensive male Wistar Kyoto rat assessed as reduction in diastolic blood pressure at 2.5 mg/kg administered via gavage for 4 weeks and measured at 22 hrs post dose by tail-artery manometry; type: functional
[13] = system: Rattus norvegicus; assay: Effect on spontaneously hypertensive male Wistar Kyoto rat assessed as reduction in serum ACE activity by measuring hippuric acid level at 2.5 mg/kg administered via gavage for 4 weeks by RP-HPLC analysis; type: functional, organism-based
[14] = system: Rattus norvegicus; assay: Effect on spontaneously hypertensive male Wistar Kyoto rat assessed as reduction in Ang II level in serum at 2.5 mg/kg administered via gavage for 4 weeks by ELISA; type: functional, organism-based
[15] = system: Rattus norvegicus; assay: Antihypertensive activity in spontaneously […] male Wistar Kyoto rat assessed as increase in fecal acetic acid level at 5 mg/kg administered via gavage for 4 weeks and measured at 22 hrs post dose by RP-HPLC analysis relative to control; type: functional
[16] = system: Rattus norvegicus; assay: Antihypertensive activity in spontaneously […] male Wistar Kyoto rat assessed as increase in fecal propionic acid level at 5 mg/kg administered via gavage for 4 weeks and measured at 22 hrs post dose by RP-HPLC analysis relative to control; type: functional
[17] = system: Rattus norvegicus; assay: Antihypertensive activity in spontaneously […] male Wistar Kyoto rat assessed as increase in fecal butyric acid level at 5 mg/kg administered via gavage for 4 weeks and measured at 22 hrs post dose by RP-HPLC analysis relative to control; type: functional
[18] = species: Rattus norvegicus; assay: Prevention of gut microbiota dysbiosis in spontaneously hypertensive male Wistar Kyoto rat model assessed as increase in bacteroidetes abundance; type: functional, organism-based
[19] = species: Rattus norvegicus; assay: Prevention of gut microbiota dysbiosis in spontaneously hypertensive male Wistar Kyoto rat model assessed as decrease in epsilonbacteraeota abundance; type: functional, organism-based
[20] = species: Rattus norvegicus; assay: Prevention of gut microbiota dysbiosis in spontaneously hypertensive male Wistar Kyoto rat model assessed as increase in enterobacteriaceae abundance relative to control; type: functional
[21] = species: Rattus norvegicus; assay: Prevention of gut microbiota dysbiosis in spontaneously hypertensive male Wistar Kyoto rat model assessed as increase in roseburia abundance; type: functional, organism-based
[22] = target: T1, Angiotensin-converting enzyme; assay: Inhibition of ACE (unknown origin)

T1 sequence (P12821 whole entry): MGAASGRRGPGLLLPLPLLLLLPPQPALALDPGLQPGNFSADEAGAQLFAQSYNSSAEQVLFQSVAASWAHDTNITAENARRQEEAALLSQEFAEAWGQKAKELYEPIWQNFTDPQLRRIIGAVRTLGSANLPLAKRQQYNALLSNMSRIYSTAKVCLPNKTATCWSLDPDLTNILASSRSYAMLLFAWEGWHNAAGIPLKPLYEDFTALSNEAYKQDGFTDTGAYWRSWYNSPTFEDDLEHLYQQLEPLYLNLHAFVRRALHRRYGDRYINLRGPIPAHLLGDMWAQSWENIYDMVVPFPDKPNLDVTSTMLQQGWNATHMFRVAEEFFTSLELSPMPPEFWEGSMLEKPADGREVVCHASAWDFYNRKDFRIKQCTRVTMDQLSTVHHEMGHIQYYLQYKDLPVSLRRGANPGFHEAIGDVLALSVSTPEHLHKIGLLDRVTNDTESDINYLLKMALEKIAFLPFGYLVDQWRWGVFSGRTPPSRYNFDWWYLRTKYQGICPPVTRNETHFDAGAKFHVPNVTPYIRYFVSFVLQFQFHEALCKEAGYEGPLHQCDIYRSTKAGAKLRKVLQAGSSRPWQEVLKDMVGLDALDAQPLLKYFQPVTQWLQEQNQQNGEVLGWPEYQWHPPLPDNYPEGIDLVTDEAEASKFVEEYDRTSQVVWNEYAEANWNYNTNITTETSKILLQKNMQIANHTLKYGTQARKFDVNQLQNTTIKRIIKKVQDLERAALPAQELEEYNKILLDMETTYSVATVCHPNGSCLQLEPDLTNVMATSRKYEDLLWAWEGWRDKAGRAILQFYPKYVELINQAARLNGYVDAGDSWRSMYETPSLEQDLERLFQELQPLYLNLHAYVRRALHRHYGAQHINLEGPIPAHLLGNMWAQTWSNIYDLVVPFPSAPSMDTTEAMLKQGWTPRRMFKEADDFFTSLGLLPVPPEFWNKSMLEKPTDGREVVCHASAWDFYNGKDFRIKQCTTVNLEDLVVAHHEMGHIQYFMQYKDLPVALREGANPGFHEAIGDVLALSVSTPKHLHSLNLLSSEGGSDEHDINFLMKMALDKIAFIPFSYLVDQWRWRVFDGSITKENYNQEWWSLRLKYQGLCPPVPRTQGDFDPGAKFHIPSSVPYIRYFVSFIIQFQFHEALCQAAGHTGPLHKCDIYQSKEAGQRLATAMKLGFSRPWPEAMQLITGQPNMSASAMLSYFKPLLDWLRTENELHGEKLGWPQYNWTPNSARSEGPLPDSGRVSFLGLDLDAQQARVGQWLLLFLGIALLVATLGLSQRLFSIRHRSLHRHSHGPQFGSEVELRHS

`C[C@H](NC(=O)[C@@H](N)CCCCN)C(=O)N[C@@H](CCCCN)C(=O)N1CCC[C@H]1C(=O)O` (H-KAKP-OH) showed a -TdeltaS [1] of -7.51 kcal/mol, a deltaH [2] of -1.84 kcal/mol and an IC50 [3] of 7.23 µM. For the same compound, the deltaS [4] was 25.2 cal/mol.K, the deltaG [5] was -9.35 kcal/mol and the Kd [6] was 0.141 µM. The Activity [7] was “Active”.
Work on `NCCCC[C@H](N[C@@H](CCc1ccccc1)C(=O)O)C(=O)N1CCC[C@H]1C(=O)O` [LISINOPRIL ANHYDROUS] yielded a -TdeltaS [1] of -7.21 kcal/mol, a deltaH [2] of -3.21 kcal/mol and a deltaS [4] of 24.2 cal/mol.K. The Activity [8] was “Active”, the Activity [9] was 33 mmHg and the Activity [10] was 28 mmHg. For the same compound, the Activity [11] was 39 mmHg, the Activity [12] was 32 mmHg and the Activity [13] was “Active”. The Activity [14] was “Active”, the Activity [15] was “inactive” and the Activity [16] was “inactive”. For the same compound, the Activity [17] was “inactive”, the Activity [18] was “Active” and the Activity [19] was “Active”. The Activity [20] was 76% and the Activity [21] was “inactive”.
Compound `CC[C@H](C)[C@H](NC(=O)[C@H](CCCCN)NC(=O)[C@H](C)NC(=O)[C@@H](N)CCCCN)C(=O)O` (H-KAKI-OH) has an IC50 [3] of 6890 µM.
With `NCC(=O)N[C@@H](CCC(=O)O)C(=O)N1CCC[C@H]1C(=O)N[C@@H](Cc1ccccc1)C(=O)O` (H-GEPF-OH) the IC50 [3] was 36.1 µM.
For `CC(C)C[C@H](NC(=O)[C@H](Cc1c[nH]c2ccccc12)NC(=O)[C@H](CCCCN)NC(=O)[C@H](Cc1ccccc1)NC(=O)[C@@H]1CCCN1C(=O)[C@H](CC(N)=O)NC(=O)[C@@H](NC(=O)[C@@H](NC(=O)[C@@H](N)C(C)C)[C@@H](C)O)C(C)C)C(=O)N1CCC[C@H]1C(=O)O` (H-VTVNPFKWLP-OH), the IC50 [22] was 5.5 µM.
In the case of `CC(C)C[C@H](NC(=O)[C@H](CCCCN)NC(=O)[C@H](C)NC(=O)[C@@H](N)CCCCN)C(=O)O` (H-KAKL-OH), the IC50 [3] is reported as 2620 µM.
For `C[C@H](NC(=O)[C@@H](N)CCCCN)C(=O)N1CCC[C@H]1C(=O)N[C@@H](CCCCN)C(=O)O` (H-KAPK-OH), the IC50 [3] was 1450 µM.
Work on `N=C(N)NCCC[C@H](NC(=O)[C@@H]1CCCN1C(=O)[C@H](CC(N)=O)NC(=O)CN)C(=O)O` (H-GNPR-OH) yielded an IC50 [3] of 3050 µM.
With `C[C@H](NC(=O)[C@H](CCCCN)NC(=O)[C@H](C)NC(=O)[C@@H](N)CCCCN)C(=O)O` (H-KAKA-OH) the IC50 [3] was 667 µM.
